Experimental data: PubChem BioAssay AID248 (DTP/NCI, 2004)
Several values for one entry are separate records, joined by “and”; a condition that tells them apart may be missing. Equal entries are not always repeated. Toxic doses and inconclusive results are not listed.

Tested on: L1210 leukemia ip in BDF1 mice, survival T/C
Assay: NCI In Vivo Anticancer Drug Screen. Data for tumor model L1210 Leukemia (intraperitoneal) in B6D2F1 (BDF1) mice
Details: endpoint: mean survival time, higher = longer survival
Method in brief: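 Survival endpoint. Drug-treated group vs vehicle group, expressed as T divided by C. Tumor passaged by transplantation.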

[1] = dose: 100.0 mg/kg/injection, schedule: Q01DX001 (ip), vehicle: saline
[2] = dose: 200.0 mg/kg/injection, schedule: Q01DX001 (ip), vehicle: saline
[3] = dose: 400.0 mg/kg/injection, schedule: Q01DX001 (ip), vehicle: saline
[4] = dose: 6.25 mg/kg/injection, schedule: Q01DX009 (ip), vehicle: saline
[5] = dose: 12.5 mg/kg/injection, schedule: Q01DX009 (ip), vehicle: saline
[6] = dose: 25.0 mg/kg/injection, schedule: Q01DX009 (ip), vehicle: saline
[7] = dose: 100.0 mg/kg/injection, schedule: Q04DX003 (ip), vehicle: Klucel (hydroxypropylcellulose) (HPC)
[8] = dose: 200.0 mg/kg/injection, schedule: Q04DX002 (ip), vehicle: saline
[9] = dose: 200.0 mg/kg/injection, schedule: Q04DX003 (ip), vehicle: Klucel (hydroxypropylcellulose) (HPC)
[10] = dose: 400.0 mg/kg/injection, schedule: Q04DX002 (ip), vehicle: saline
[11] = dose: 400.0 mg/kg/injection, schedule: Q04DX003 (ip), vehicle: Klucel (hydroxypropylcellulose) (HPC)
[12] = dose: 100.0 mg/kg/injection, schedule: Q01DX001 (ip), vehicle: saline with Tween-80
[13] = dose: 200.0 mg/kg/injection, schedule: Q01DX001 (ip), vehicle: saline with Tween-80
[14] = dose: 100.0 mg/kg/injection, schedule: Q04DX003 (ip), vehicle: other
[15] = dose: 200.0 mg/kg/injection, schedule: Q04DX003 (ip), vehicle: other
[16] = dose: 100.0 mg/kg/injection, schedule: Q01DX009 (ip), vehicle: Klucel (hydroxypropylcellulose) (HPC)
[17] = dose: 200.0 mg/kg/injection, schedule: Q01DX009 (ip), vehicle: Klucel (hydroxypropylcellulose) (HPC)
[18] = dose: 400.0 mg/kg/injection, schedule: Q01DX009 (ip), vehicle: Klucel (hydroxypropylcellulose) (HPC)
[19] = dose: 100.0 mg/kg/injection, schedule: Q01DX001 (ip), vehicle: Klucel (hydroxypropylcellulose) (HPC)
[20] = dose: 200.0 mg/kg/injection, schedule: Q01DX001 (ip), vehicle: Klucel (hydroxypropylcellulose) (HPC)

Cc1ccc(S(=O)(=O)OCCN(CCOS(=O)(=O)c2ccc(C)cc2)c2ccc(F)cc2)cc1
T/C (dose: 1.9 mg/kg/injection, schedule: Q01DX009 (ip), vehicle: saline): 122 % of control
T/C (dose: 4.4 mg/kg/injection, schedule: Q01DX009 (ip), vehicle: saline): 122 % of control
T/C (dose: 6.5 mg/kg/injection, schedule: Q01DX009 (ip), vehicle: saline): 102 % of control
T/C (dose: 9.6 mg/kg/injection, schedule: Q01DX009 (ip), vehicle: saline): 124 % of control
T/C (dose: 10.0 mg/kg/injection, schedule: Q01DX009 (ip), vehicle: saline): 118 % of control
T/C (dose: 16.0 mg/kg/injection, schedule: Q01DX009 (ip), vehicle: saline): 113 % of control
T/C (dose: 22.0 mg/kg/injection, schedule: Q01DX009 (ip), vehicle: saline): 166 % of control
T/C (dose: 23.0 mg/kg/injection, schedule: Q01DX009 (ip), vehicle: saline): 113 % of control
T/C (dose: 24.0 mg/kg/injection, schedule: Q01DX009 (ip), vehicle: saline): 152 % of control
T/C (dose: 35.0 mg/kg/injection, schedule: Q01DX009 (ip), vehicle: saline): 121 % of control
T/C (dose: 50.0 mg/kg/injection, schedule: Q01DX001 (ip), vehicle: saline): 97 % of control
T/C (dose: 50.0 mg/kg/injection, schedule: Q01DX009 (ip), vehicle: saline): 95 % of control
T/C (dose: 53.0 mg/kg/injection, schedule: Q01DX009 (ip), vehicle: other): 110 % of control
T/C (dose: 75.0 mg/kg/injection, schedule: Q01DX009 (ip), vehicle: saline): 88 % of control
T/C (dose: 79.0 mg/kg/injection, schedule: Q01DX009 (ip), vehicle: other): 98 % of control and 119 % of control
T/C [1]: 100 % of control
T/C (dose: 118.0 mg/kg/injection, schedule: Q01DX009 (ip), vehicle: other): 104 % of control
T/C (dose: 150.0 mg/kg/injection, schedule: Q01DX009 (ip), vehicle: saline): 123 % of control
T/C [2]: 105 % of control
T/C [3]: 115 % of control

Cc1cccc(CCSCCc2cccc(C)[n+]2[O-])[n+]1[O-]
T/C [1]: 96 % of control
T/C [2]: 92 % of control

O=C1C=C(Nc2ccc(O)cc2)c2ccccc2C1=O
T/C (dose: 3.12 mg/kg/injection, schedule: Q01DX009 (ip), vehicle: saline): 107 % of control
T/C [4]: 102 % of control
T/C [5]: 103 % of control
T/C [6]: 91 % of control
T/C (dose: 50.0 mg/kg/injection, schedule: Q04DX003 (ip), vehicle: saline): 103 % of control
T/C (dose: 75.0 mg/kg/injection, schedule: Q01DX001 (ip), vehicle: carboxymethylcellulose (CMC)): 93 % of control
T/C (dose: 100.0 mg/kg/injection, schedule: Q04DX003 (ip), vehicle: saline): 95 % of control
T/C (dose: 150.0 mg/kg/injection, schedule: Q01DX001 (ip), vehicle: carboxymethylcellulose (CMC)): 100 % of control
T/C (dose: 300.0 mg/kg/injection, schedule: Q01DX001 (ip), vehicle: carboxymethylcellulose (CMC)): 90 % of control

O=C(Cc1cccc([N+](=O)[O-])c1)Nc1ccc(S(=O)(=O)F)cc1
T/C [1]: 112 % of control
T/C [2]: 111 % of control
T/C [3]: 110 % of control

CN1CCc2c3n(c4ccccc24)C(=O)CCC31 (stereo not drawn)
T/C [4]: 106 % of control
T/C [5]: 101 % of control
T/C [6]: 104 % of control

[C](#[C][Sn]([c]1ccccc1)([c]1ccccc1)[c]1ccccc1)[Sn]([c]1ccccc1)([c]1ccccc1)[c]1ccccc1
T/C [7]: 94 % of control
T/C [8]: 92 % of control
T/C [9]: 95 % of control
T/C [10]: 92 % of control
T/C [11]: 111 % of control

CC1=N/C(=N\c2nc3ccccc3[nH]2)NC(=O)CC1
T/C (dose: 75.0 mg/kg/injection, schedule: Q01DX001 (ip), vehicle: saline): 101 % of control
T/C (dose: 150.0 mg/kg/injection, schedule: Q01DX001 (ip), vehicle: saline): 93 % of control

OCCOc1c(Cl)c(Cl)c(Cl)c(Cl)c1Cl
T/C (dose: 50.0 mg/kg/injection, schedule: Q01DX009 (ip), vehicle: saline with Tween-80): 101 % of control
T/C (dose: 100.0 mg/kg/injection, schedule: Q01DX009 (ip), vehicle: saline with Tween-80): 94 % of control
T/C (dose: 100.0 mg/kg/injection, schedule: Q04DX003 (ip), vehicle: saline with Tween-80): 102 % of control
T/C (dose: 200.0 mg/kg/injection, schedule: Q01DX009 (ip), vehicle: saline with Tween-80): 103 % of control
T/C (dose: 200.0 mg/kg/injection, schedule: Q04DX003 (ip), vehicle: saline with Tween-80): 97 % of control

O=C1NC(=S)S/C1=C\c1ccc(F)cc1
T/C (dose: 12.5 mg/kg/injection, schedule: Q04DX003 (ip), vehicle: saline with Tween-80): 117 % of control
T/C (dose: 25.0 mg/kg/injection, schedule: Q04DX003 (ip), vehicle: saline with Tween-80): 98 % of control
T/C (dose: 50.0 mg/kg/injection, schedule: Q04DX003 (ip), vehicle: saline with Tween-80): 103 % of control

CCCCCSc1nccc(N)n1
T/C [12]: 97 % of control
T/C [13]: 103 % of control

COc1cccc(/C=N\NC(=O)C(C)SC(C)C(=O)N/N=C/c2cccc(OC)c2)c1 (stereo not drawn)
T/C (dose: 100.0 mg/kg/injection, schedule: Q01DX009 (ip), vehicle: other): 91 % of control
T/C [14]: 89 % of control
T/C (dose: 200.0 mg/kg/injection, schedule: Q01DX009 (ip), vehicle: other): 94 % of control
T/C [15]: 89 % of control
T/C (dose: 400.0 mg/kg/injection, schedule: Q01DX009 (ip), vehicle: other): 94 % of control
T/C (dose: 400.0 mg/kg/injection, schedule: Q04DX003 (ip), vehicle: other): 96 % of control

Cc1cc(C)c(NC(=O)Nc2ccc(Cl)cc2)c(C)c1
T/C [16]: 92 % of control
T/C [7]: 100 % of control
T/C [17]: 92 % of control
T/C [9]: 97 % of control
T/C [18]: 96 % of control
T/C [11]: 97 % of control

CNC(=O)CCC(NS(=O)(=O)c1ccc(C)cc1)C(=O)OC (stereo not drawn)
T/C [12]: 100 % of control
T/C [13]: 94 % of control
T/C (dose: 400.0 mg/kg/injection, schedule: Q01DX001 (ip), vehicle: saline with Tween-80): 97 % of control

Cc1ccc(-c2cn(CCCOc3ccccc3)c(=O)nc2N)cc1
T/C (dose: 50.0 mg/kg/injection, schedule: Q01DX001 (ip), vehicle: Klucel (hydroxypropylcellulose) (HPC)): 89 % of control
T/C [19]: 99 % of control
T/C [20]: 87 % of control

CC1=C/C(=N/NC(N)=O)CC(C)(C)C1
T/C [1]: 93 % of control
T/C [2]: 93 % of control
T/C [3]: 98 % of control

ClC1=C(Cl)C2(Cl)C(COc3ccc(Cl)cc3)CC1(Cl)C2(Cl)Cl (stereo not drawn)
T/C (dose: 50.0 mg/kg/injection, schedule: Q01DX009 (ip), vehicle: other): 91 % of control
T/C [16]: 94 % of control
T/C [14]: 109 % of control
T/C [17]: 96 % of control
T/C [15]: 104 % of control
T/C [18]: 96 % of control

CCCCCCCCCCCCCCCCC[CH2][Sn]([Cl])([CH2]CCCCCCCCCCCCCCCCC)[CH2]CCCCCCCCCCCCCCCCC
T/C (dose: 100.0 mg/kg/injection, schedule: Q04DX002 (ip), vehicle: Klucel (hydroxypropylcellulose) (HPC)): 92 % of control
T/C (dose: 200.0 mg/kg/injection, schedule: Q04DX002 (ip), vehicle: Klucel (hydroxypropylcellulose) (HPC)): 100 % of control
T/C (dose: 400.0 mg/kg/injection, schedule: Q04DX002 (ip), vehicle: Klucel (hydroxypropylcellulose) (HPC)): 96 % of control

NC(=O)N/N=C1/CCSc2ccc3c(c21)CCCC3
T/C [19]: 102 % of control
T/C [16]: 106 % of control
T/C [20]: 93 % of control
T/C [17]: 104 % of control
T/C (dose: 400.0 mg/kg/injection, schedule: Q01DX001 (ip), vehicle: Klucel (hydroxypropylcellulose) (HPC)): 94 % of control
T/C [18]: 101 % of control

C=CCC(O)c1ccccc1 (stereo not drawn)
T/C (dose: 100.0 mg/kg/injection, schedule: Q04DX002 (ip), vehicle: saline): 103 % of control
T/C [8]: 100 % of control
T/C [10]: 113 % of control
